Test results reported in patent publication US20020001652A1, “Process for making granulated N-[N- (3, 3-dimethylbutyl) -L-alpha -aspartyl] -L- phenylalanine 1-methyl ester” (priority 2000, published 2002).

How the values were obtained:
[1] = bulk density (loose), cup of known volume; assay type: physicochemical; conditions: Example 2; granulation through 20 mesh, retained on 60 mesh, versus initial powder
Description: In particular, bulk density (loose) was measured using a cup of known volume. The cup was filled with sample, excess was removed and the sample was weighed.

[2] = HPLC analysis of neotame degradation during granulation; assay type: physicochemical; conditions: roller compaction, cone mill, sieving
Description: A lab scale TF-Mini roller compactor (Vector Corp., Marion, Iowa) was used in conjunction with a cone mill and a Ro-Tap testing sieve shaker (model B, CE Tyler Combustion Engineering, Inc., Mentor, Ohio) for testing and producing granulated neotame. The neotame powder flowed well into the feed hopper. […] The energy consumption of the rolls and feed screw were within the desired limits. The flakes were broken down into granular particles using a cone mill. The granulation was sieved to obtain a particle size that passed through 20 mesh and was retained on 60 mesh.

- bulk density [1]: 0.4 g/cc
- degradation of neotame during granulation process [2]: no degradation
Structure (SMILES): COC(=O)[C@H](Cc1ccccc1)NC(=O)[C@H](CC(=O)O)NCCC(C)(C)C [neotame, N-[N-(3,3-dimethylbutyl)-L-α-aspartyl]-L-phenylalanine 1-methyl ester]
